Assays:
[1] = system: HSV-1; test: Inhibition of HSV-1-induced cutaneous lesions (vesicles) in hairless guinea pigs; assay type: in vivo; settings: continued treatment
Excerpt: Burroughs Wellcome Co., Research Triangle Park, N.C.; the current agent of choice for treatment of HSV infections which inhibits activity of viral DNA polymerase) in inhibiting HSV-1-induced cutaneous lesions in hairless guinea pigs. […] To confirm in an experimental animal model the efficacy of n-docosanol cream on HSV-induced lesions, and to compare its activity to that of […], hairless guinea pigs were inoculated with 1×10^6 PFU of HSV-1, and then treated with either n-docosanol-containing or control cream, or […] ointment. The n-docosanol creams were constructed as described. The control cream was constructed in a similar manner except stearic acid was substituted for n-docosanol. Treatment was started either 2 or 48 hours after virus inoculation. The sites were evaluated for vesicle formation, defined as a pus-filled blister, at the indicated time points.

[2] = system: virus; test: Direct virucidal activity; settings: n-docosanol suspension
Excerpt: The collective implications of the results of the studies are that the compound appears to interfere with one or more of the common pathways of viral entry into the cell and migration to the nucleus of infected target cells.

[3] = system: HSV-2; assay type: cell-based
[4] = system: HSV; test: Secondary plaque assay of infectious virions; assay type: cell-based; settings: secondary plaque assay cultures
Excerpt: Finally, the replication of infectious virions as measured in secondary plaque assay cultures is markedly diminished by 99% or more in n-docosanol-treated cells.

[5] = system: HSV; test: Inhibition of HSV replication, Tetronic versus Pluronic suspensions; assay type: cell-based
[6] = system: HSV; test: Inhibition of HSV-induced plaques in Vero versus MDBK cells; assay type: cell-based
[7] = system: Vero or MDBK cells; test: Uptake and metabolism in Vero versus MDBK cells; assay type: in vitro ADME, bovine (MDBK)
Method: FIG. 11 depicts data showing that n-[^14 C]-docosanol is metabolized more by Vero cells than by MDBK cells. Vero or MDBK cells were plated as described in the specification. n-[^14 C]-Docosanol was added to 6 mM (0.24 mM Tetronic 908) and the cultures were incubated 72 hours at 37° C./CO2. Cells were extracted and analyzed on TLC with hexane:diethyl ether:acetic acid (20:30:1; v:v:v) as the developing solvent. With this solvent system the polar phosphatides remain at the origin. The position of migration of n-docosanol is indicated. Duplicate plates were treated with an identical suspension lacking the radioactive label, and the numbers of cells in these duplicate plates were determined by counting cells excluding trypan blue with a hemocytometer.
When we compared total cellular uptake and relative metabolism, the results were strikingly clear. First, both the total amounts of n-docosanol uptake and the relative amounts of metabolic conversion were 3-4 times higher in Vero than in MDBK cells. […] Nonetheless, of the counts that are metabolized in two cells lines, the relative amounts in the major classes of phosphatides that are formed, phosphatidylcholine and phosphatidylethanolamine, are not different in the two cell lines.

[8] = system: Friend virus; test: Friend virus-induced leukemia and viremia in mice; assay type: in vivo, BALB/c mice; settings: intravenous
[9] = system: HIV-1; test: HIV-1 replication in PHA/IL-2-stimulated human peripheral blood mononuclear cells (p24 ELISA); assay type: cell-based
Method: Human peripheral blood mononuclear cells were cultured in medium containing 1 μg/ml PHA plus 5 units/ml IL-2 alone or also containing 100 μg/ml PFA, […] F-68 control vehicle contained in the high dose of n-docosanol/Pluronic. After overnight incubation, the cultures were inoculated with HIV-1 at a multiplicity of infection of 1 virion/cell. After 24 hours incubation at 37° C., the cultures were washed and inoculated with fresh medium containing PHA and IL-2, but lacking inhibitor. Replication of HIV-1 was determined 4 days later by quantitation of viral antigens by a p24-specific ELISA for HIV-1.
Our initial studies on HIV were conducted in collaboration with a U.S. National Institutes of Health laboratory and one of several experiments of this type is summarized in FIG. 13. Normal human peripheral blood mononuclear cells were activated with […] PHA plus 5 units/ml of IL-2 in medium alone or in the presence of the n-docosanol, Pluronic F-68 control vehicle, or phosphonoformic acid (PFA). The next day, the cultures were inoculated with HIV-1 and examined 4 days later for evidence of viral replication by detection of the p24 viral antigen. […] The dose response of HIV-1 to n-docosanol indicates an ED 50 of about 6-9 mM.

[10] = system: Varicella Zoster Virus; test: Antiviral activity against varicella zoster virus; assay type: cell-based; settings: Table 6, human viruses
[11] = system: Respiratory Syncytial Virus; test: Antiviral activity against respiratory syncytial virus; assay type: cell-based; settings: Table 6, human viruses
[12] = system: reovirus; test: Antiviral activity against reovirus; assay type: cell-based; settings: nonenveloped virus
[13] = system: Herpes simplex virus type 1; test: Inhibition of HSV type 1 infectivity in simian and human cell lines; assay type: cell-based, HSV-1
[14] = system: Herpes simplex virus type 2; test: Inhibition of HSV type 2 infectivity in simian and human cell lines; assay type: cell-based, HSV-2
[15] = system: murine retroviruses; test: Replication of murine retroviruses in vitro and in vivo
Excerpt: n-Docosanol has anti-retroviral activity both in vitro and in vivo. […] Notwithstanding the implications for treatment of AIDS, availability of a treatment regimen for diseases caused by retroviruses like feline leukemia virus, bovine leukemia virus, as well HTLV-1 and -2 would have substantial benefits in humanitarian terms.

[16] = system: Vero cells
[17] = system: Vero cells; remark: listed apart in the source
[18] = system: viruses; settings: U.S. Pat. No. 4,874,794; cited from earlier work
[19] = system: Vero cells; test: Cellular uptake and distribution of radiolabeled n-docosanol in Vero cells

Question: For `CCCCCCCCCCCCCCCCCCCCCCO` [n-docosanol], which “vesicle number at the 72 hour time point” value [1] is on record?
Answer: many fewer vesicles

Question: What about the direct virucidal activity [2] of the same compound?
Answer: no direct virucidal activity

Question: What about the “internalization of HSV complete by 20 minutes” value ([3]; after shift to 37° C.) of the same compound?
Answer: less than 40%

Question: And the “time to completion of internalization” value ([3]; after shift to 37° C.)?
Answer: more than 1 hour

Question: And the “persistence of bound HSV virions on the cell surface” value ([3]; in the presence of n-docosanol)?
Answer: remain on the cell surface for a prolonged time period

Question: And the “decrease of replication of infectious virions” value [4]?
Answer: ≥ 99%

Question: And the “ED50 in Pluronic relative to Tetronic” value ([5]; suspended in Pluronic F-68)?
Answer: approximately 3 times

Question: And the EC50 ([5]; suspended in Tetronic 908, read-out: ED50 for inhibition of HSV replication)?
Answer: 5 to 10 mM

Question: What about the “effectiveness in inhibiting HSV-induced plaques, Vero relative to MDBK cells” value [6] of the same compound?
Answer: 3-4 fold

Question: And the “relative metabolic conversion, Vero relative to MDBK cells” value [7]?
Answer: 3-4 times

Question: And the “total uptake, Vero relative to MDBK cells” value [7]?
Answer: 3-4 times

Question: And the “amount of phosphatide metabolite, Vero relative to MDBK cells” value ([7]; after 72 hours, FIG. 11)?
Answer: ~4 fold

Question: What about the “relative amounts of phosphatidylcholine and phosphatidylethanolamine in the two cell lines” value ([7]; of counts metabolized) of the same compound?
Answer: not different

Question: What about the “inhibition of development of leukemic foci” value ([8]; FIG. 12 Panel A) of the same compound?
Answer: very clear dose-related inhibitory affect

Question: What about the “inhibition of development of viremia” value ([8]; FIG. 12 Panel B) of the same compound?
Answer: very clear dose-related inhibitory affect

Question: What about the “activity at the highest dose compared with PFA” value ([9]; FIG. 13) of the same compound?
Answer: comparable to that observed with the very potent antiviral compound, phosphonoformic acid (PFA)

Question: What about the EC50 ([9]; Human immunodeficiency virus 1, PBMC, dose response of HIV-1, read-out: ED 50 (the source's name)) of the same compound?
Answer: 6 to 9 mM

Question: And the “susceptibility to antiviral activity: HIV-1” value ([9]; Table 6, human viruses)?
Answer: susceptible

Question: And the “inhibition of HIV-1 replication” value ([9]; n-docosanol/Pluronic, FIG. 13)?
Answer: dose-related inhibitory activity

Question: And the “antiviral HIV activity in Tetronic” value ([9]; suspended in Tetronic)?
Answer: even higher levels of antiviral HIV activity

Question: What about the “susceptibility to antiviral activity: Varicella Zoster Virus” value [10] of the same compound?
Answer: susceptible

Question: What about the “susceptibility to antiviral activity: Respiratory Syncytial Virus” value [11] of the same compound?
Answer: susceptible

Question: And the activity against reovirus [12]?
Answer: no detectable activity

Question: And the “susceptibility to antiviral activity: Herpes Simplex - 1” value ([13]; Table 6)?
Answer: susceptible

Question: What about the “inhibitory activity in vitro” value ([13]; suspension in Pluronic F-68) of the same compound?
Answer: excellent inhibitory activity

Question: And the “susceptibility to antiviral activity: Herpes Simplex - 2” value ([14]; Table 6)?
Answer: susceptible

Question: And the “inhibitory activity in vitro” value ([14]; suspension in Pluronic F-68)?
Answer: excellent inhibitory activity

Question: And the “inhibition of murine retrovirus replication” value [15]?
Answer: does inhibit replication of murine retroviruses in vitro and in vivo

Question: What about the “fraction of total n-docosanol cell-associated” value [16] of the same compound?
Answer: less than 1%

Question: And the molecules per cell [16]?
Answer: ~8×10^9 molecules per cell

Question: What about the “radioactive compound in cell membranes” value [16] of the same compound?
Answer: 75%

Question: What about the “radioactive compound in nuclear fractions” value [16] of the same compound?
Answer: less than 1%

Question: What about the “reversibility of cell association” value [16] of the same compound?
Answer: irreversible

Question: And the “time of peak uptake per cell” value [16]?
Answer: 6 to 12 h

Question: And the “total uptake, Tetronic versus Pluronic suspension” value [16]?
Answer: equivalent

Question: What about the “counts migrating in the region of phosphatidylcholine” value [17] of the same compound?
Answer: approximately 62%

Question: And the “counts migrating in the region of phosphatidylethanolamine” value [17]?
Answer: ~38%

Question: What about the “levels of metabolic conversion, Tetronic relative to Pluronic” value [17] of the same compound?
Answer: 3 fold

Question: And the metabolic conversion [17]?
Answer: progressively metabolized to polar compounds

Question: And the antiviral properties [18]?
Answer: favorable

Question: What about the “radioactivity in the soluble cytoplasmic fraction” value ([19]; after 12 hours of exposure) of the same compound?
Answer: the balance of radioactivity

Question: What about the “actual bioactive dose relative to the dose shown in FIGS. 7 and 9” value ([19]; cultures, from uptake studies) of the same compound?
Answer: 1/1000

Question: What about the “reduction of uptake of n-docosanol by energy poisons” value ([19]; sodium azide and 2-deoxyglucose, Vero cells) of the same compound?
Answer: 90%

Reference: US5534554A, “Sucrose ester-C20 to C28 alcohol formulations” (priority 1994, dated 1996)
